According to patent US20210024483A1, “HETEROCYLCOALKENYL DERIVATIVES USEFUL AS AGONISTS OF THE GPR120 AND / OR GPR40” (Janssen Pharmaceutica NV, priority 2018, published 2021):

How the values were obtained:
[1] = target: T1, Human GPR120 short form (short splice variant, NM_001195755.1) (Homo sapiens, UniProt Q5NUL3); assay: Human GPR120 Calcium Flux Assay; assay type: cell-based; conditions: HEK-293 cells, 4200 cells/well, read-out: Human GPR120 Calcium Flux Assay Procedure B EC50
T1 construct: expressed in transfected cells; host or cells: HEK293
T1 sequence (Q5NUL3 1-361): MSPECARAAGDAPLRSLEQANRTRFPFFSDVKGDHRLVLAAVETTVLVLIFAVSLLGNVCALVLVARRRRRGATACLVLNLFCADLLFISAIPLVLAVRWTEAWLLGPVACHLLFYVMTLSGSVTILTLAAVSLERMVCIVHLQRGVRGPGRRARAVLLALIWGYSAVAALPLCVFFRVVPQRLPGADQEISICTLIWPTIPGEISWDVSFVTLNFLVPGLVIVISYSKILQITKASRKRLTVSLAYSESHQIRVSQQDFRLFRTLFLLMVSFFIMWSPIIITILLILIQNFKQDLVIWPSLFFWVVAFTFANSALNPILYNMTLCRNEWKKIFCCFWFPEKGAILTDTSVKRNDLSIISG
Excerpt: In Vitro Assay: Human GPR120 in Calcium Flux Assay
This in vitro assay serves to assess test compound agonist activity against the short splice variant (SVS with Accession number NM_001195755.1 confirmed by sequencing data) of the GPR120 receptor. The Human Short splice variant #2 (NM_001195755.1) is missing an in-frame coding exon compared to variant 1 (the Human Long splice variant NM_181745.3), resulting in a shorter isoform (GPR120-S) lacking a 16 aa protein segment compared to isoform GPR120-L. The assay platform utilizes HEK-293 cells stably transfected to express the Human GPR120 short form. These cells are first loaded with the Ca^+2 sensitive dye, Fluo-4 NW. Upon stimulation, intracellular released Ca^+2 can bind to the dye and alter its fluorescence intensity. This increase in fluorescence signal, and thus the flux in intracellular [Ca^2+], is detected and quantitated by fluorescence imaging using a FLIPR reader. The effect of the agonist is measured as a function of concentration and used to calculate an EC50 based upon a response curve. […]
In this procedure 4200 cells/well were employed.
A Human GPR120 clone (Genbank accession number NM_001195755.1) was placed into the pcDNA3.1 mammalian expression vector carrying the neomycin resistance gene. A stable mammalian cell was generated by placing the above clone into a HEK293 background. Clonal cells responding to long chain fatty acids had expression levels of GPR120 confirmed by RT-qPCR. Human HEK-GPR120 cells were cultured in Dulbecco's Modified Eagle's Medium (DMEM)/F12 medium supplemented with 10% fetal bovine serum (FBS), 1% L-Glutamine and 1% penicillin/streptomycin and 0.5 mg/ml G-418. Cells were split 2 times a week to keep the cells in the log-phase growth.
In preparation for the assay, HEK cells stably transfected with Human GPR120 (2.5K cells per well in 25 uL growth medium) were seeded into 384-well plates and then incubated overnight (37° C., 5% CO2). The next day, the media was changed to 20 μL assay buffer and the cell starved for 1 h at 37° C. The dye loading solution (2× dye) was prepared using 10 mL assay buffer, 100 μL of 250 mM probenecid, 1 bottle of Component A, and 20 μl of dye in DMSO. Twenty μL of the 2× dye loading buffer was then added to each well. The plates were incubated at 37° C. for 30 min, then at room temperature for an additional 15 minutes, before performing the assay on FLIPR.
The assay was performed on a FLIPR plate reader using the following parameters. Baseline was read for 10 seconds at 1 sec intervals. The program was set to transfer 10 μL of ligand from compound plate to cell plate after baseline reading. Aspiration was executed at: 10 μL/sec speed, 4.6 μL height; Dispensing was executed at: 30 μL/sec speed, 45 μL height. After compound addition, each well was read for 300 sec, with measurements collected at 1 sec intervals.
The kinetic data from the FLIPR was based upon a 5 minute window for data collection. The fluorescence of each sample well was used for individual calculations of a normalized RFU value, which was defined as maximum response minus the minimum response. The normalized fluorescence reading (RFU) was calculated as follows:
(§1) The data were fitted to a sigmoidal dose-response curve with a variable Hill slope (<2) using nonlinear regression with GraphPad Prism 5.0 to calculate the EC50 values. The Fitting Equation was: Y=Bottom+(Top−Bottom)/(1+10^((Log EC50−X)*HillSlope)), where X is the log of the concentration and Y is the response.

[2] = target: T2, short form of the GPR120 receptor (Homo sapiens, UniProt Q5NUL3); assay: Human GPR120 DiscoveRx PathHunter Beta-Arrestin Assay, Procedure B; assay type: cell-based; conditions: PathHunter CHO-K1 GPR120S cells, 5000 cells/well
T2 construct: host or cells: PathHunter CHO-K1 GPR120S beta-Arrestin Cell Line
T2 sequence (Q5NUL3 1-361): T1 sequence (Q5NUL3 1-361)
Excerpt: Human GPR120 DiscoveRx PathHunter® Beta-Arrestin Assay
The binding of an agonist (medium/long chain fatty acids or small molecule agonists) to the G-protein-coupled receptor GPR120 activates phospholipase C, leading to release of intracellular Ca^+2 through the generation of inositol 1,4,5-trisphosphate (InsP3 or IP3). GPR120 activation can also trigger intracellular signaling via recruitment of Beta-Arrestin. In the present method, agonist-induced activation of the human GPR120 receptor is monitored through the use of PathHunter® CHO-K1 GPR120 Beta-Arrestin Cell Line engineered by DiscoveRx, as detailed below. The cell lines were designed to co-express both the ProLink/Enzyme Donor (PK)-tagged GPCR and the Enzyme […] (EA)-tagged Beta-Arrestin fusion proteins. Upon GPR120 receptor stimulation/activation, the EA-tagged Beta-Arrestin portion is translocated to the tagged receptor, where the two enzyme fragments are brought within close proximity. Under these conditions, these fragments can interact and form an active Beta-gal enzyme complex through Enzyme Fragment Complementation (EFC). This active Beta-gal complex can enzymatically hydrolyse the substrate to produce a detectable light signal; therefore, activation as a function of agonist concentration can be expressed as an EC50 value to determine relative compound activities. This in vitro assay therefore serves to assess compound agonist activity of the GPR120.
In Procedure β-arrestin B the cells used were PathHunter® CHO-K1 GPR120S β-Arrestin Cell Line, expressing the short form of the GPR120 receptor (Accession #[…]), with 5000 cells/well.
The selected CHO-K1 GPR120 β-Arrestin cells were cultured in Ham's F12 media supplemented with 10% fetal bovine serum (FBS), 1% Glutamine, 1× p/s, 800 μg/mL G418 and 300 μg/mL Hygromycin B (for selection). Cell stocks were maintained and grown in a sub-confluent state using standard cell culture procedures. The day before the experiment, the cells were harvested with non-enzymatic cell dissociation buffer and re-suspended in complete growth media at the desired concentration. A Corning 384-plate was then seeded with the proper number of cells in a volume of 25 μL, per well. The seeded plates were incubated overnight at 37° C.
On the day of the experiment, the Assay Buffer containing (a) HBSS with Ca^++ and Mg^++, (b) 20 mM HEPES, and (c) 0.1% BSA stabilizer (pH 7.4) was prepared. The growth medium was gently removed from the cell plates and 20 μL of Assay Buffer added to each well. The plate was then incubated at 37° C. for 60 min. Test compounds were serially diluted in Assay Buffer to desired concentrations (more particularly to one or more of the following μM concentrations: 25, 12.5, 6.25, 3.12, 1.56, 0.78, 0.39, 0.19, 0.10, 0.05, 0.02, 0.01). Five μL of compound dilution was then added to each well and the plate incubated at 37° C. for 90 min. The detection reagents were prepared according to the manufacture's instruction. Twelve μL of the detection reagents were added to each well and the plate incubated at room temperature for 60 min.
The plates were read on an EnVision instrument, using Protocol name: Luminescence, Plate type: 384 Costar, Measurement height: 3 mm, Measurement time: 1 s, Aperture: 384 Plate aperture. The % Activity relative to the positive control was calculated using the following equation:
as §1, with “% Activity values” for “data”, “were plotted versus the concentration of test compound and” for “were”, “a” for “a variable”, “slope=1 (fixed value)” for “slope (<2)”

`Cc1cc(CCC(=O)O)ccc1OCC1=C(c2ccc(F)cc2)CSC1` [compound 625] was tested, and the EC50 [1] was 124 nM and the EC50 [2] was 110 nM.

`Cc1c(CCC(=O)O)ccc(OCC2=C(c3ccc(Cl)cc3)CCOC2)c1C` [compound 641] was tested, and the EC50 [1] was 172 nM and the EC50 [2] was 204 nM.

Work on `O=C(O)CCc1cc(F)c(OCC2=C(c3ccc(Cl)cc3)CCOC2)c(F)c1` [compound 642] yielded an EC50 [1] of 176 nM and an EC50 [2] of 623 nM.

For `Cc1cc(CCC(=O)O)ccc1OCC1=C(c2ccc(Cl)cc2)CCOC1` [compound 645], the EC50 [1] was 269 nM and the EC50 [2] was 275 nM.

`O=C(O)CCc1ccc(OCC2=C(c3ccc(Cl)cc3)CCOC2)cc1C(F)(F)F` [compound 646] was tested, and the EC50 [1] was 628 nM and the EC50 [2] was 3650 nM.

For `COc1ccc(C2=C(COc3ccc(CCC(=O)O)c(C)c3C)COCC2)cc1` [compound 647], the EC50 [1] was greater than 5000 nM and the EC50 [2] was 740 nM.

For `Cc1c(CCC(=O)O)ccc(OCC2=C(c3ccc(F)cc3)CCOC2)c1C` [compound 650], the EC50 [1] was 316 nM and the EC50 [2] was 658 nM.

`Cc1c(CCC(=O)O)ccc(OCC2=C(c3ccc(F)c(F)c3)CCOC2)c1C` [compound 658] was tested, and the EC50 [1] was 142 nM and the EC50 [2] was 169 nM.

`Cc1cc(CCC(=O)O)ccc1OCC1=C(c2ccc(Cl)cc2)COCC1` [compound 753] was tested, and the EC50 [1] was 178 nM and the EC50 [2] was 296 nM.
